Earlier results, collected in US8877755B2, “Dopamine-agonist combination therapy for improving sleep quality” (priority 2004, dated 2014).
Counter-ions that a name gives are not always drawn. Like-named read-outs stand apart in the source and are kept apart here.

Assays:
[1] = mice; behavioral depression score <40
[2] = in vivo
[3] = molecular target: GABA:2-oxo-glutarate aminotransferase (Homo sapiens, UniProt P80404); conditions: at 10^−3 M
[4] = test system: GABA uptake system; design: dose or concentration left out as unconfirmed
[5] = test system: L-glutamate 1-carboxylase; conditions: at 10^−3 M
[6] = not given; remark: listed apart in the source
[7] = L-dopa 100 mg with carbidopa 10 mg, in most cases
[8] = primates, multiple doses for up to four days
[9] = not given; remark: listed apart in the source
[10] = in vivo; remark: listed apart in the source
[11] = in vivo; remark: listed apart in the source
[12] = following oral administration
[13] = not given; remark: listed apart in the source

Sequence of GABA:2-oxo-glutarate aminotransferase (P80404 29-500): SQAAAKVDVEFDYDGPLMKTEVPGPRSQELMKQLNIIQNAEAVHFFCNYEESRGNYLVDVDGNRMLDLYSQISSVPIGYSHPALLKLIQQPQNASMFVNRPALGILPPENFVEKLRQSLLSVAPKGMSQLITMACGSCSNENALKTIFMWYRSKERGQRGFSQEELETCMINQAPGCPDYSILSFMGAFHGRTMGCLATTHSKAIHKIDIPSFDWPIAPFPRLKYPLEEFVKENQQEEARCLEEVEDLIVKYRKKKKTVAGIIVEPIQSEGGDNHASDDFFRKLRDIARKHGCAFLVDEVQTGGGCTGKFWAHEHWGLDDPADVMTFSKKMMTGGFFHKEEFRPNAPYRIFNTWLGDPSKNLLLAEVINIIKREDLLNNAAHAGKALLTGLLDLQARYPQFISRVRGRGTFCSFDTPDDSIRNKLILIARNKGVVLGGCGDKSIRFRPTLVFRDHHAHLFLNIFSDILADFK

## O=C(CCCN1CCC(O)(c2ccc(Cl)cc2)CC1)c1ccc(F)cc1 [haloperidol]
[1]
  ED100: 10 mg/kg

## Cc1ccc(-c2nc3ccc(C)cn3c2CC(=O)N(C)C)cc1 [zolpidem, N,N,6-trimethyl-2-(4-methylphenyl)-imidazo[1,2-s]pyridine-3-acetamide]
[2]
  elimination half-life (mean): 2.4 h

## CCC1(c2ccccc2)CCC(=O)NC1=O (centres unmarked) [glutethimide]
[1]
  ED100: 300 mg/kg

## Oc1noc2c1CCNC2 [gaboxadol, 4,5,6,7-tetrahydroisoxazolo[5,4-c]pyridin-3-ol]
[3]
  interaction with GABA:2-oxo-glutarate aminotransferase: did not interact
[4]
  interaction with GABA uptake system: did not interact
[5]
  interaction with L-glutamate 1-carboxylase: did not interact

## CN1C[C@@H](NS(=O)(=O)N(C)C)C[C@@H]2c3cccc4c3c(cn4C)C[C@H]21 [mesulergine, N′-(1,6-dimethylergolin-8α-yl)-N,N-dimethylsulfamide]
Hydrochloride salt
  solubility in water: soluble in water
[6]
  half-life in vivo: approximately 2 hr

## CCCC(C)(COC(N)=O)COC(N)=O [meprobamate]
[1]
  ED100: 300 mg/kg

## CN1C(=O)CN=C(c2ccccc2)c2cc(Cl)ccc21 [diazepam]
[1]
  ED100: 50 mg/kg

## N[C@@H](Cc1ccc(O)c(O)c1)C(=O)O [L-dopa]
[7]
  effect on RLS: completely suppresses RLS

## CN1CCc2cccc3c2[C@H]1Cc1ccc(O)c(O)c1-3 [apomorphine HCl]
[8]
  doses without major adverse effects: 0.1 to 0.4 mg/kg
[9]; single bolus subcutaneous injection, mammals
  tolerated dose: up to 13 mg/kg

## CCCC(C)C1(CC)C(=O)NC(=O)NC1=O (centres unmarked) [pentobarbital]
[1]
  ED100: 100 mg/kg

## Oc1ccc(C2CNCCc3c2cc(O)c(O)c3Cl)cc1 (racemic) [racemic fenoldopam, 6-chloro-2,3,4,5-tetrahydro-1-(4-hydroxyphenyl)-1H-3-benzazepine-7,8-diol]
[10]
  average clearance (CL): 2.6 L/min
  half-life (t1/2): 4.6 min

## CN1CCc2cccc3c2[C@H]1Cc1ccc(O)c(O)c1-3 [apomorphine, (R)-5,6,6a,7-tetrahydro-6-methyl-4H-dibenzo-[de,g]quinoline-10,11-diol]
[9]; continuous infusion for 14 days
  tolerated dose, continuous infusion: 420 µg/kg/h
[9]; over the course of the 14 day study
  minimally lethal dose, continuous infusion: 1,500 μg/kg/hr

## C=CCN1C[C@H](C(=O)N(CCCN(C)C)C(=O)NCC)C[C@@H]2c3cccc4[nH]cc(c34)C[C@H]21 [Cabergoline, 1-[(6-allylergolin-8β-yl)-carbonyl]-1-[3-(dimethylamino)propyl]-3-ethylurea]
[11]
  half life: ≤ 65 h

## COC(=O)[C@H]1[C@H]2C[C@@H]3c4[nH]c5cc(OC)ccc5c4CCN3C[C@H]2C[C@@H](OC(=O)c2cc(OC)c(OC)c(OC)c2)[C@@H]1OC [reserpine]
[1]
  ED100: 50 mg/kg

## CCN(C(C)=O)c1cccc(-c2ccnc3c(C#N)cnn23)c1 [Zaleplon, N-[3-(3-cyanopyrazolo[1,5-a]pyrimidin-7-yl)phenyl]-N-ethylacetamide]
[12]
  time to peak plasma concentration: 1 h

## CC(=O)N(C)c1cccc(-c2ccnc3c(C(=O)c4cccs4)cnn23)c1 [Indiplon, N-methyl-N-(3-{3-[2-thienylcarbonyl]-pyrazolo-[1,5-a]-pyrimidin-7-yl}-phenyl)acetamide]
At 20-30 μg/ml in water
  resulting pH of water solution: approximately 8.0
[13]
  half-life in vivo: approximately 1.3 hours
